According to patent US20220408756A1, “POULTRY FEED AND DRINKING WATER COMPOSITION COMPRISING MONOMETHYLSILANETRIOL” (RXW Group nv, priority 2019, published 2022):

Legend:
broiler chicken [1] = assay: Bone strength measurement (tibia); format: in vivo; settings: D41
Procedure: (§1) A study was conducted to investigate the effect of silicium supplementation in drinking water of broiler chicken on their performance, locomotive system, skin healing and bone formation. Silicium was supplemented in 2 treatment groups. A third group was used as control and not treated with silicium. Silicium-monomethylsilanetriol (Si-MMST) was administrated at 2 different concentrations. More specific, Si-MMST was added to drinking water at 0.3 mg/l and 1.48 mg/l. These refer to the final silicium concentrations as measured by ICP-AES. Birds were moreover reared on humidified bedding material to simulate bad housing conditions and induce mild locomotive and skin complications. During the study, performance was assessed by weighing birds and monitoring feed intake on specific time points, separating the study in a starter, grower and finisher period. Additionally, mobility of the birds was assessed at the end of the grower (D33) and finisher period (D41) by means of gait scoring (Kestin et al., 1992). At the end of the trial (D41), footpad and chest lesions, femur head necrosis and tibia dyschondroplasy were assessed by qualified veterinarians, which also isolated 1 tibia per bird for bone strength and composition analysis. The main results of this study are summarizes in table 1.
(§2) On D41, one tibia of each bird was collected for analysis. Initially, we selected 2 birds in each pen (first 2 numbers/pen) to obtain 50 samples for analysis of bone weight, fracture force (N), maximum force (N), stiffness (N/mm), bone dry matter (%), bone ash (%), phosphorus content (%), calcium content (%), copper content (mg/kg), manganese content (mg/kg) and zinc content (mg/kg). The results of bone strength measurement per treatment group are presented in table 9 and analysis on bone composition is represented in table 10.

broiler chicken [2] = assay: Femur head necrosis and tibia dyschondroplasy scores; format: in vivo; design: Femur head necrosis score (mean): scale not given here; settings: D41; for Tibia dyschondroplasy score (mean) / Tibia dyschondroplasy, number of birds with score 0 / Tibia dyschondroplasy, number of birds with score 1 / Tibia dyschondroplasy, number of birds with score 2: unilateral, scale 0 to 2
Procedure: as §1
As 1 of the 2 tibia needs to be isolated unimpaired, tibia dyschondroplasy could only be scored unilateral. Therefore the tibia dyschondroplasy scoring ranges from 0 to 2 instead of 0 to 5.
On D41, all birds were scored for femur head necrosis and tibia dyschondroplasy as described in table 8. No significant differences could be observed between the UC and silicium treated groups based on femur head necrosis and tibia dyschondroplasy.

broiler chicken [3] = assay: Bone composition measurements (tibia); format: in vivo; settings: for Bone ash / Bone calcium content / Bone copper content / Bone dry matter / Bone phosphorus content / Bone zinc content: D41; for Bone manganese content: D41, values below detection limit (<5) set to 2.5
Procedure: as §1, §2

broiler chicken [4] = assay: Footpad and chest lesion scores; format: in vivo; design: Footpad lesion score (mean) / Chest lesion score (mean): scale not given here; settings: D41
Procedure: as §1
More specific, the average footpad lesion score decreased from 1.31 in the UC to 0.9 in the 0.3 mg/l Si-MMS treatment group.

broiler chicken [5] = assay: Animal body weight and daily weight gain, broiler study with silicium in drinking water; format: in vivo; settings: for BW D0 (LSM): day 0; for BW D14 (LSM): day 14; for BW D33 (LSM): day 33
Procedure: as §1, with “More specific, Si-MMST was added to drinking water at 0.3 mg/l and 1.48 mg/l.” left out
Average daily weight gain (DWG) for example in starter period (D0-D14) was calculated, using following formula: […]
Similar formula was used to calculate the DWG for all the experimental periods. Table 2 and 3 respectively show the body weight (BW) and daily weight gain (DWG) for the different time points or experimental periods.

broiler chicken [6] = assay: Gait scoring (Kestin et al., 1992); format: in vivo; settings: day 33
Procedure: as §1, with “The main results of this study are summarizes in table 1.” left out
On D33 and D41, mobility of the birds was evaluated individually by using the gait scoring chart as described by Kestin et al., 1992. […]

Stability in water = format: physicochemical
Procedure: This organosilicon compound is highly bioavailable. […] MMST can advantageously be used without stabilizers in silicon equivalent concentrations up to 300 mg/l. The stability of MMST is dependent on concentration and declines at higher concentrations. The stability can be enhanced by the use of stabilizing agents.

broiler chicken [7] = assay: Feed consumption and feed conversion; format: in vivo
Procedure: as §1
The total feed weight was measured per pen when switching between feed compositions. The feed weight (“Feed IN”) was measured and recorded on D0, D14, D33 and D41. Two pens during grower period and all pens during finisher period were supplemented with extra feed to enable at libitum feeding. This extra feed was also weighed and recorded as “Feed IN”. The remaining feed in each pen (“Feed OUT”) was weighed and recorded on D14, D33 and D41. The feed intake (=difference in feed weight at beginning and the end of the experimental period) was calculated for each group per study period. The average daily feed intake (DFI) was calculated for the experimental period using the feed intake data by using following formula: […]
The Feed Conversion Ratio (FCR) was calculated for each of the above mentioned study periods, using following formula: […]

[8] = 0.3 mg/l Si-MMST in drinking water
[9] = 1.48 mg/l Si-MMST in drinking water

For C[Si](O)(O)O [Si-MMST, monomethylsilanetriol], the “Bone weight (mean)” value (broiler chicken [1]; [8]) was 12.3 g, the “Fracture force (mean)” value (broiler chicken [1]; [8]) was 360.7 N and the “Maximum force (mean)” value (broiler chicken [1]; [8]) was 372.5 N. For the same compound, the “Stiffness (mean)” value (broiler chicken [1]; [8]) was 148.8 N/mm, the “Bone weight (mean)” value (broiler chicken [1]; [9]) was 13.2 g and the “Fracture force (mean)” value (broiler chicken [1]; [9]) was 400.6 N. The “Maximum force (mean)” value (broiler chicken [1]; [9]) was 409.6 N, the “Stiffness (mean)” value (broiler chicken [1]; [9]) was 164.3 N/mm and the “Femur head necrosis score (mean)” value (broiler chicken [2]; [8]) was 1.29. The “Femur head necrosis, number of birds with score 0” value (broiler chicken [2]; [8]) was 10, the “Femur head necrosis, number of birds with score 1” value (broiler chicken [2]; [8]) was 15 and the “Femur head necrosis, number of birds with score 2” value (broiler chicken [2]; [8]) was 24. The “Femur head necrosis, number of birds with score 3” value (broiler chicken [2]; [8]) was 0, the “Femur head necrosis, number of birds with score 5” value (broiler chicken [2]; [8]) was 0 and the “Tibia dyschondroplasy score (mean)” value (broiler chicken [2]; [8]) was 0.10. The “Tibia dyschondroplasy, number of birds with score 0” value (broiler chicken [2]; [8]) was 44, the “Tibia dyschondroplasy, number of birds with score 1” value (broiler chicken [2]; [8]) was 5 and the “Tibia dyschondroplasy, number of birds with score 2” value (broiler chicken [2]; [8]) was 0. For the same compound, the “Femur head necrosis score (mean)” value (broiler chicken [2]; [9]) was 1.2, the “Femur head necrosis, number of birds with score 0” value (broiler chicken [2]; [9]) was 15 and the “Femur head necrosis, number of birds with score 1” value (broiler chicken [2]; [9]) was 7. For the same compound, the “Femur head necrosis, number of birds with score 2” value (broiler chicken [2]; [9]) was 22, the “Femur head necrosis, number of birds with score 3” value (broiler chicken [2]; [9]) was 1 and the “Femur head necrosis, number of birds with score 5” value (broiler chicken [2]; [9]) was 0. For the same compound, the “Tibia dyschondroplasy score (mean)” value (broiler chicken [2]; [9]) was 0.09, the “Tibia dyschondroplasy, number of birds with score 0” value (broiler chicken [2]; [9]) was 41 and the “Tibia dyschondroplasy, number of birds with score 1” value (broiler chicken [2]; [9]) was 4. For the same compound, the “Tibia dyschondroplasy, number of birds with score 2” value (broiler chicken [2]; [9]) was 0, the Bone ash (broiler chicken [3]; [8]) was 22.6% and the Bone calcium content (broiler chicken [3]; [8]) was 35.3%. For the same compound, the Bone copper content (broiler chicken [3]; [8]) was 3.3 mg/kg, the Bone dry matter (broiler chicken [3]; [8]) was 49.0% and the Bone phosphorus content (broiler chicken [3]; [8]) was 17.8%. It also gave a Bone zinc content (broiler chicken [3]; [8]) of 326.9 mg/kg, a Bone manganese content (broiler chicken [3]; [8]) of 7.4 mg/kg and a Bone ash (broiler chicken [3]; [9]) of 22.9%. It also gave a Bone calcium content (broiler chicken [3]; [9]) of 35.1%, a Bone copper content (broiler chicken [3]; [9]) of 3.2 mg/kg and a Bone dry matter (broiler chicken [3]; [9]) of 49.1%. The Bone phosphorus content (broiler chicken [3]; [9]) was 17.6%, the Bone zinc content (broiler chicken [3]; [9]) was 340.3 mg/kg and the Bone manganese content (broiler chicken [3]; [9]) was 8.2 mg/kg. The “Chest lesion score (mean)” value (broiler chicken [4]; [8]) was 0.02, the “Chest lesion, number of birds with score 0” value (broiler chicken [4]; [8]) was 48 and the “Chest lesion, number of birds with score 1” value (broiler chicken [4]; [8]) was 1. For the same compound, the “Footpad lesion score (mean)” value (broiler chicken [4]; [8]) was 0.9, the “Footpad lesion, number of birds with score 0” value (broiler chicken [4]; [8]) was 19 and the “Footpad lesion, number of birds with score 1” value (broiler chicken [4]; [8]) was 16. For the same compound, the “Footpad lesion, number of birds with score 2” value (broiler chicken [4]; [8]) was 14, the “Chest lesion score (mean)” value (broiler chicken [4]; [9]) was 0.00 and the “Chest lesion, number of birds with score 0” value (broiler chicken [4]; [9]) was 45. The “Chest lesion, number of birds with score 1” value (broiler chicken [4]; [9]) was 0, the “Footpad lesion score (mean)” value (broiler chicken [4]; [9]) was 1.04 and the “Footpad lesion, number of birds with score 0” value (broiler chicken [4]; [9]) was 8. For the same compound, the “Footpad lesion, number of birds with score 1” value (broiler chicken [4]; [9]) was 27, the “Footpad lesion, number of birds with score 2” value (broiler chicken [4]; [9]) was 10 and the “BW D0 (LSM)” value (broiler chicken [5]; 0.3 mg/l Si-MMST in drinking water (Si-MMST 1)) was 48 g. The “DWG D0-14 (LSM)” value (broiler chicken [5]; [8]) was 25.6 g, the “DWG D0-41 (LSM)” value (broiler chicken [5]; 0.3 mg/l Si-MMST in drinking water, D0-41) was 63.1 g and the “DWG D14-33 (LSM)” value (broiler chicken [5]; [8]) was 70.6 g. For the same compound, the “DWG D33-41 (LSM)” value (broiler chicken [5]; [8]) was 111.1 g, the “BW D14 (LSM)” value (broiler chicken [5]; [8]) was 407 g and the “BW D33 (LSM)” value (broiler chicken [5]; [8]) was 1748 g. The “BW D41 (LSM)” value (broiler chicken [5]; 0.3 mg/l Si-MMST in drinking water, day 41) was 2636 g, the “DWG over the complete study period (D0-D41) versus control” value (broiler chicken [5]; 1.433 mg/l Si-MMST in drinking water, D0-D41) was “significantly increased” and the “body weight on day 41 versus control” value (broiler chicken [5]; 1.433 mg/l Si-MMST in drinking water, day 41) was “significantly increased”. The “BW D0 (LSM)” value (broiler chicken [5]; 1.48 mg/l Si-MMST in drinking water (Si-MMST 2)) was 48 g, the “DWG D0-14 (LSM)” value (broiler chicken [5]; [9]) was 25.8 g and the “DWG D14-33 (LSM)” value (broiler chicken [5]; [9]) was 77.6 g. For the same compound, the “DWG D33-41 (LSM)” value (broiler chicken [5]; [9]) was 111.1 g, the “BW D14 (LSM)” value (broiler chicken [5]; [9]) was 410 g and the “BW D33 (LSM)” value (broiler chicken [5]; [9]) was 1883 g. For the same compound, the “BW on day 41” value (broiler chicken [5]; 1.48 mg/l Si-MMST in drinking water, day 41, UC 2.622 kg) was 2.775 kg, the “Gait score D33 (mean)” value (broiler chicken [6]; [8]) was 0.26 and the “Gait score D33 (mean)” value (broiler chicken [6]; [9]) was 0.27. The “silicon equivalent concentration usable without stabilizers” value (Stability in water; in water, without stabilizers) was “up to 300 mg/l”, the stability in water (Stability in water; low concentrations) was “sufficiently stable” and the “DFI D0-14 (mean)” value (broiler chicken [7]; [8]) was 24.9 g. The “FCR D0-14 (mean)” value (broiler chicken [7]; [8]) was 1.0, the “DFI D0-41 (mean)” value (broiler chicken [7]; [8]) was 117.4 g and the “FCR D0-41 (mean)” value (broiler chicken [7]; [8]) was 1.9. The “DFI D14-33 (mean)” value (broiler chicken [7]; [8]) was 141.2 g, the “FCR D14-33 (mean)” value (broiler chicken [7]; [8]) was 2.0 and the “DFI D33-41 (mean)” value (broiler chicken [7]; [8]) was 207.0 g. For the same compound, the “FCR D33-41 (mean)” value (broiler chicken [7]; [8]) was 1.9, the “DFI D0-14 (mean)” value (broiler chicken [7]; [9]) was 25.0 g and the “FCR D0-14 (mean)” value (broiler chicken [7]; [9]) was 1.0. For the same compound, the “DFI D0-41 (mean)” value (broiler chicken [7]; [9]) was 114.4 g, the “FCR D0-41 (mean)” value (broiler chicken [7]; [9]) was 1.8 and the “DFI D14-33 (mean)” value (broiler chicken [7]; [9]) was 132.7 g. The “FCR D14-33 (mean)” value (broiler chicken [7]; [9]) was 1.7, the “DFI D33-41 (mean)” value (broiler chicken [7]; [9]) was 218.5 g and the “FCR D33-41 (mean)” value (broiler chicken [7]; [9]) was 2.1. The “daily feed intake versus control” value (broiler chicken [7]; MMST supplemented treatment groups, all study periods and D0-D41) was “higher than the control”.
